Columns and labels:
[1] = molecular target: T1, Lanosterol 14-alpha demethylase (Homo sapiens, UniProt Q16850); experiment: Binding affinity for cytochrome P450 14DM; design: species or system Saccharomyces cerevisiae
T1 sequence (Q16850 whole entry): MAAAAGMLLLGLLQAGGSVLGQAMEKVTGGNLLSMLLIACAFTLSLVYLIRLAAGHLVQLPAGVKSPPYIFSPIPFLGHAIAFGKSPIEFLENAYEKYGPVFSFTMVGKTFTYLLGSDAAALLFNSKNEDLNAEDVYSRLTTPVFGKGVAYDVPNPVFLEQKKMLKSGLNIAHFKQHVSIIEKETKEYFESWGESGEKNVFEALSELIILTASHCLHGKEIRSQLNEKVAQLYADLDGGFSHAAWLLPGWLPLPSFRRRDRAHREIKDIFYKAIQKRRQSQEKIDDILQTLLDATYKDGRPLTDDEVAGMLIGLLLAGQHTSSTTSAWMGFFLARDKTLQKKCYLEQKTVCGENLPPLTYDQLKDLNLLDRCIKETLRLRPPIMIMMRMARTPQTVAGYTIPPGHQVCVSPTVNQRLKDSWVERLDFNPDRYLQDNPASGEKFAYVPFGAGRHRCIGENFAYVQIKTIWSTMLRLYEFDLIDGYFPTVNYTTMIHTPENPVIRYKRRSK

P45014DM = experiment: Photolysis after effective incorporation into P45014DM at 313 nm in phosphate buffer; type: ADME; design: dose or concentration left out as unconfirmed; settings: compound incorporated into P45014DM
[2] = Photolysis at 264 nm in phosphate buffer; type: ADME; design: dose or concentration left out as unconfirmed
[3] = Specific activity was determined; type: functional; settings: tested as the 3H-labelled form

SMILES	Kd [1] [µM]	half-life (P45014DM) [min]	half-life [2] [min]	Activity [3] [mCi/M]
[N-]=[N+]=Nc1ccc(Cn2ccnc2)cc1	15	–	–	–
[3H]C(O)(Cn1ccnc1)c1ccc(N=[N+]=[N-])cc1 (configuration not stated)	–	45	2.5	–
[N-]=[N+]=Nc1ccc(-n2ccnc2)cc1	25	–	–	–
[N-]=[N+]=Nc1ccc(C(=O)Cn2ccnc2)cc1	18	–	–	–
[N-]=[N+]=Nc1ccc(C(O)Cn2ccnc2)cc1 (configuration not stated)	1.4	–	–	26.4

— ChEMBL document CHEMBL1126167, “Synthesis and evaluation of photoaffinity probes directed at lanosterol 14-demethylase (P-45014DM)” (Bioorg Med Chem Lett, 1992)
